Experimental data as given in patent US20230078764A1 (Yumanity Therapeutics, Inc., priority 2019, published 2023).
Like-named read-outs stand apart in the source and are kept apart here.

Tests used:
[1] = molecular target: T1, human SCD1 (Homo sapiens, UniProt O00767); assay: Growth inhibition of yeast strain expressing human SCD1 as sole desaturase (OLE1 deleted), OD600 readout; type: cell-based
T1 construct: expressed in transfected cells; host or cells: yeast strain with OLE1 deleted, plasmid-borne human SCD1 (selected in SD-Ura)
T1 sequence (O00767 1-359): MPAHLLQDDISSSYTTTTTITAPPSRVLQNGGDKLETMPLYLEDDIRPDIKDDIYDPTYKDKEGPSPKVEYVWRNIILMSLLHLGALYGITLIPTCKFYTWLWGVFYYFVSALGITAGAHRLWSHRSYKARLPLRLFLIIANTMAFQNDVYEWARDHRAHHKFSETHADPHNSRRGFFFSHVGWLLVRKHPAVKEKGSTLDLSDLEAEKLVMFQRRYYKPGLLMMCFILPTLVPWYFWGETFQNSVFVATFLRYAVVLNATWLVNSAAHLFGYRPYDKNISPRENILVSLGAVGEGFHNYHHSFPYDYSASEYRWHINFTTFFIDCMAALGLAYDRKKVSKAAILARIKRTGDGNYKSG

[2] = molecular target: T2, human SCD5 (Homo sapiens, UniProt Q86SK9); assay: Growth inhibition of yeast strain expressing human SCD5 as sole desaturase (OLE1 deleted), OD600 readout; type: cell-based
T2 construct: expressed in transfected cells; host or cells: yeast strain with OLE1 deleted, plasmid-borne human SCD5 (selected in SD-Ura)
T2 sequence (Q86SK9 1-330): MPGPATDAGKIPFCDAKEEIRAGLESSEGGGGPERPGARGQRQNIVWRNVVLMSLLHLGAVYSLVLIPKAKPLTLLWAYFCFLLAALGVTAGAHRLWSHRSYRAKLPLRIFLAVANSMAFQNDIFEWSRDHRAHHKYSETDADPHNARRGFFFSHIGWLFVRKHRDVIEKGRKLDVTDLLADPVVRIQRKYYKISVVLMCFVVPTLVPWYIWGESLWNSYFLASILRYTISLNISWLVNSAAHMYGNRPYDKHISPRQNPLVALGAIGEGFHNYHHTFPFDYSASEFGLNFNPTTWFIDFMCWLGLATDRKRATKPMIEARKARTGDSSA

[3] = yeast strain expressing human SCD1 as sole desaturase, growth (OD600) after 40 h at 30° C., read-out: SCD1 IC50
[4] = yeast strain expressing human SCD5 as sole desaturase, growth (OD600) after 40 h at 30° C., read-out: SCD5 IC50

Row | Compound | IC50 [1, 3] [nM] | IC50 [2, 4] [nM] | IC50 ([1]; SCD1 IC50) [nM] | IC50 ([2]; SCD5 IC50) [nM]
1 | O=C(Nc1ccc(Cc2cccc(Cl)c2)cn1)N1CC2(COC2)C1 [Compound 250] | > 45000 | 9750 | – | –
2 | Cc1nccc(C(=O)Nc2ccc(Cc3cccc(Cl)c3)cn2)n1 [Compound 114, N-(5-(3-chlorobenzyl)pyridin-2-yl)-2-methylpyrimidine-4-carboxamide] | 50 | 10 | – | –
3 | Cn1cc(C(=O)Nc2ccc(Cc3cc(Cl)cc(C#N)c3)cn2)ccc1=O [Compound 618] | 510 | 22 | – | –
4 | Cn1nc(C(=O)Nc2ccc(Cc3ccc(F)c(F)c3)cn2)cc1O [Compound 324] | > 45000 | 1130 | – | –
5 | Cn1nc(C(=O)Nc2ccc(OCc3cc(F)cc(C#N)c3)cn2)ccc1=O [Compound 441] | > 45000 | > 45000 | – | –
6 | CC(O)c1ccc(C(=O)Nc2ccc(Cc3cccc(Cl)c3)cn2)cn1 (stereo not shown) [Compound 368] | 1370 | 240 | – | –
7 | Cn1cc(C(=O)Nc2nnc(Cc3ccc(F)c(Cl)c3)s2)ccc1=O [Compound 350] | 2600 | 5420 | – | –
8 | Cn1cc(C(=O)Nc2ccc(Cc3cc(F)ccc3F)cn2)ccc1=O [Compound 565] | 2700 | 20 | – | –
9 | O=C(Nc1ccc(COc2ccc(F)c(Cl)c2)cn1)c1ccc(CO)nc1 [Compound 293] | 80 | 40 | – | –
10 | Cn1cc(C(=O)Nc2ccc(CC3CCCCC3)cn2)ccc1=O [Compound 65, N-(5-(cyclohexylmethyl)pyridin-2-yl)-1-methyl-6-oxo-1,6-dihydropyridine-3-carboxamide] | – | – | 1210 | 140
11 | N#Cc1cc(C(=O)Nc2ccc(Cc3ccc(F)c(F)c3)cn2)ccn1 [Compound 563] | 1100 | 570 | – | –
12 | COC(C)(c1cccc(F)c1)c1cnc(NC(=O)C2=NN(C)C(=O)CC2)s1 (stereo not shown) [Compound 424] | > 45000 | > 45000 | – | –
13 | CN1N=C(C(=O)Nc2nc(Cc3ccc4ccccc4n3)cs2)CCC1=O [Compound 422] | > 45000 | > 45000 | – | –
14 | O=C(Nc1ccc(Cc2ccc(F)c(F)c2)cn1)c1ccc2nncn2c1 [Compound 147, N-(5-(3,4-difluorobenzyl)pyridin-2-yl)-[1,2,4]triazolo[4,3-a]pyridine-6-carboxamide] | 310 | 40 | – | –
15 | CCn1cc(C(=O)Nc2ccc(CC3CCCCC3)cn2)ccc1=O [Compound 326] | > 45000 | 4710 | – | –
16 | O=C(Nc1ccc(Cc2cccc(Cl)c2)cn1)c1ccc(C2(O)CC2)nc1 [Compound 557] | > 45000 | 1900 | – | –
17 | N#Cc1cc(F)cc(Cc2ccc(NC(=O)c3ccc(C#N)nc3)nc2)c1 [Compound 535] | > 45000 | 480 | – | –
18 | CN1N=C(C(=O)Nc2nc(Cl)c(Cc3cccc(F)c3)s2)CCC1=O [Compound 218, N-(4-chloro-5-(3-fluorobenzyl)thiazol-2-yl)-1-methyl-6-oxo-1,4,5,6-tetrahydropyridazine-3-carboxamide] | 2730 | 360 | – | –
19 | CN1N=C(C(=O)Nc2ncc(Cc3cccc(F)c3)s2)CCC1=O [Compound 220] | 660 | 520 | – | –
20 | Cn1nc(C(=O)Nc2ccc(Oc3cccc(Cl)c3)cn2)ccc1=O [Compound 163, N-[5-(3-chlorophenoxy)pyridin-2-yl]-1-methyl-6-oxo-1,6-dihydropyridazine-3-carboxamide] | > 45000 | 240 | – | –
21 | Cn1cc(-c2ccc(C(=O)NCc3cccc(F)c3)nc2)ccc1=O [Compound 467] | > 45000 | > 45000 | – | –
22 | Cn1nc(C(=O)Nc2ccc(Cc3ccc(F)c(C#N)c3)cn2)ccc1=O [Compound 564] | 1400 | 62 | – | –
23 | Cn1nc(OC(=O)N2CCC(Oc3cccc(Cl)c3)CC2)ccc1=O [Compound 307] | 1170 | 570 | – | –
24 | Cn1nc(NC(=O)c2ccc(Cc3ccc(F)cc3)cn2)ccc1=O [Compound 495] | 560 | 15 | – | –
25 | N#Cc1cc(C(=O)Nc2ccc(Cc3cc(F)cc(F)c3)cn2)cnn1 [Compound 662] | 300 | 180 | – | –
26 | CCn1nc(C(=O)Nc2ccc(Cc3cc(F)cc(C#N)c3)cn2)ccc1=O [Compound 69, N-(5-(3-cyano-5-fluorobenzyl)pyridin-2-yl)-1-ethyl-6-oxo-1,6-dihydropyridazine-3-carboxamide] | > 45000 | 270 | – | –
27 | Cn1nc(C(=O)Nc2ccc(Cc3cc(F)cc(Cl)c3)nn2)ccc1=O [Compound 384] | > 45000 | > 45000 | – | –

Second part, led by results:

Row | IC50 [1, 3] [nM] | IC50 [2, 4] [nM] | Compound | IC50 ([1]; SCD1 IC50) [nM] | IC50 ([2]; SCD5 IC50) [nM]
28 | 3860 | 180 | O=C(Nc1ccc(Cc2cccc(F)c2)cn1)c1ccc(=O)n(C2CC2)c1 [Compound 258] | – | –
29 | > 45000 | > 45000 | Cc1nc(C(=O)Nc2ccc(Cc3cccc(F)c3)cn2)ccc1F [Compound 448] | – | –
30 | 250 | 22 | Cn1nc(C(=O)Nc2ccc(Cc3cccc(F)c3)cn2)cc1CO [Compound 560] | – | –
31 | 10 | 10 | O=C(Nc1ccc(Cc2cccc(F)c2)cn1)c1ccc(CO)nc1 [Compound 119, N-(5-(3-fluorobenzyl)pyridin-2-yl)-6-(hydroxymethyl)nicotinamide] | – | –
32 | > 45000 | 13000 | O=C(Nc1ccc(Cc2cccc(F)c2)cn1)c1ccc(=O)n(C2COC2)c1 [Compound 272] | – | –
33 | > 45000 | > 45000 | CO[C@H]1C[C@@H](C(=O)Nc2ccc(Cc3cccc(F)c3)cn2)N(C)C1 [Compound 438] | – | –
34 | 25000 | > 45000 | CCN1N=C(C(=O)Nc2ncc(Cc3cccc(F)c3)s2)CCC1=O [Compound 414] | – | –
35 | > 45000 | 6880 | CN1N=C(C(=O)Nc2ccc(OCc3cc(F)cc(C#N)c3)cn2)CCC1=O [Compound 270] | – | –
36 | 9540 | 500 | CN1N=C(C(=O)Nc2ccc(Cc3ccc(F)c(C#N)c3)cn2)CCC1=O [Compound 10, N-(5-(3-cyano-4-fluorobenzyl)pyridin-2-yl)-1-methyl-6-oxo-1,4,5,6-tetrahydropyridazine-3-carboxamide] | – | –
37 | 540 | 160 | CCn1cc(C(=O)Nc2ccc(Cc3cccc(F)c3)cn2)cn1 [Compound 355] | – | –
38 | 10 | 10 | Cn1nccc(C(=O)Nc2ccc(Cc3cc(F)cc(F)c3)cn2)c1=O [Compound 532] | – | –
39 | 100 | 10 | Cn1cccc(C(=O)Nc2ccc(Cc3cc(F)cc(F)c3)cn2)c1=O [Compound 329] | – | –
40 | 232 | 19 | Cc1cc(C(=O)Nc2ccc(Cc3cccc(F)c3)cn2)cn(C)c1=O [Compound 623] | – | –
41 | 9410 | 1430 | O=C(Nc1ccc(Cc2cccc(F)c2)cn1)c1ccn(C2CC2)n1 [Compound 285] | – | –
42 | 2600 | 450 | Cn1c(C(=O)Nc2ccc(Cc3ccc(F)c(F)c3)cn2)coc1=O [Compound 508] | – | –
43 | 2800 | 260 | O=C(Nc1ccc(Cc2cccc(F)c2)cn1)c1ncc(F)cn1 [Compound 504] | – | –
44 | 11900 | 1310 | CN1N=C(C(=O)Nc2ccc(Cc3ccc(F)c(Cl)c3)nn2)CCC1=O [Compound 192, N-(6-(3-chloro-4-fluorobenzyl)pyridazin-3-yl)-1-methyl-6-oxo-1,4,5,6-tetrahydropyridazine-3-carboxamide] | – | –
45 | > 45000 | 3000 | Cn1ccc(C(=O)Nc2ccc(Cc3ccc(F)c(F)c3)cn2)nc1=O [Compound 548] | – | –
46 | > 45000 | 26300 | O=C(Nc1ccc(Cc2cccc(F)c2)cn1)c1ccn2cnnc2c1 [Compound 344] | – | –
47 | 10 | 10 | CNC(=O)c1ccnc(NC(=O)c2ccc(Cc3cccc(F)c3)cn2)c1 [Compound 567] | – | –
48 | > 45000 | > 45000 | CN1N=C(C(=O)Oc2ccc(NCc3cccc(F)c3)nc2)CCC1=O [Compound 433] | – | –
49 | > 45000 | > 45000 | CN1N=C(C(=O)Nc2nc(Cc3cccc(F)c3)cs2)CCC1=O [Compound 406] | – | –
50 | 26400 | 310 | CN1N=C(C(=O)Nc2ccc(Cc3cccc(C(F)F)c3)cn2)CCC1=O [Example 32, N-(5-(3-(difluoromethyl)benzyl)pyridin-2-yl)-1-methyl-6-oxo-1,4,5,6-tetrahydropyridazine-3-carboxamide] | – | –
51 | > 45000 | > 45000 | CN1N=C(CNc2ccc(Cc3cccc(F)c3)cn2)CCC1=O [Compound 397] | – | –
52 | 220 | 30 | CN1N=C(C(=O)Nc2ccc(Cc3ccc(Cl)c(Cl)c3)cn2)CCC1=O [Example 20, N-(5-(3,4-dichlorobenzyl)pyridin-2-yl)-1-methyl-6-oxo-1,4,5,6-tetrahydropyridazine-3-carboxamide] | – | –
53 | 6050 | 170 | O=C(Nc1ccc(Cc2cccc(F)c2)cn1)c1cnc2nsnc2c1 [Compound 358] | – | –
